Data set [1] has as its target Somatostatin receptor type 1 (Rattus norvegicus, UniProt P28646). In words: Displacement of [125I]SRIF14 from sst1 receptor in rat cortex.
The target in data set [2] is Somatostatin receptor type 2 (Rattus norvegicus, UniProt P30680). In words: Displacement of [125I][Tyr3]octreotide from sst2 receptor in rat cortex.
For data set [3], the target named is Somatostatin receptor type 5 (Homo sapiens, UniProt P35346). In words: Binding affinity to human recombinant sst5 receptor.
Somatostatin receptor type 5, sequence (P35346 whole entry): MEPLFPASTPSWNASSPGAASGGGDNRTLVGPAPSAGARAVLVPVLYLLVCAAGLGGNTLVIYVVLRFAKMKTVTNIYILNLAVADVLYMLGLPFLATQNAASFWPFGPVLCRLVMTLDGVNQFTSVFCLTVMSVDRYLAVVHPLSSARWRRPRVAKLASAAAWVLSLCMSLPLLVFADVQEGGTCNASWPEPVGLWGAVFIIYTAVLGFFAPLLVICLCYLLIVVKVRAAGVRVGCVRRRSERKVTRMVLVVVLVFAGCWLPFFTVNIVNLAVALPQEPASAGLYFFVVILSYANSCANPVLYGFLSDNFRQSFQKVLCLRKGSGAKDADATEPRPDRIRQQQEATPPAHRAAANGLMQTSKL
For data set [4], the target named is Somatostatin receptor type 4 (Homo sapiens, UniProt P31391). As to the kind of experiment: Binding affinity to human recombinant sst4 receptor.
Somatostatin receptor type 4, sequence (P31391 whole entry): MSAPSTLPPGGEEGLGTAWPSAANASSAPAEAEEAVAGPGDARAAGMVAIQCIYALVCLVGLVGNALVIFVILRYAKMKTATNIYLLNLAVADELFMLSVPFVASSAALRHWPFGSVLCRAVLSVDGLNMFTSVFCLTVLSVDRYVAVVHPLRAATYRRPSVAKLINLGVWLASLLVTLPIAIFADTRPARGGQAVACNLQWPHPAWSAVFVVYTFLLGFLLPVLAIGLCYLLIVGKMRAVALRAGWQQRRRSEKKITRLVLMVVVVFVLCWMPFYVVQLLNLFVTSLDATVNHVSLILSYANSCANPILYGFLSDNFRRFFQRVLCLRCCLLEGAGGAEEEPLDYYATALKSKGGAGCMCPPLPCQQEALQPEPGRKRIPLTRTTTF
Data set [5] has as its target Somatostatin receptor type 3 (Homo sapiens, UniProt P32745). As to the kind of experiment: Binding affinity to human recombinant sst3 receptor.
Data set [6] has as its target Somatostatin receptor type 2 (Homo sapiens, UniProt P30874). In words: Binding affinity to human recombinant sst2 receptor.
For data set [7], the target named is T1, Somatostatin receptor type 1 (Homo sapiens, UniProt P30872). As to the kind of experiment: Binding affinity to human recombinant sst1 receptor.
T1 sequence (P30872 whole entry): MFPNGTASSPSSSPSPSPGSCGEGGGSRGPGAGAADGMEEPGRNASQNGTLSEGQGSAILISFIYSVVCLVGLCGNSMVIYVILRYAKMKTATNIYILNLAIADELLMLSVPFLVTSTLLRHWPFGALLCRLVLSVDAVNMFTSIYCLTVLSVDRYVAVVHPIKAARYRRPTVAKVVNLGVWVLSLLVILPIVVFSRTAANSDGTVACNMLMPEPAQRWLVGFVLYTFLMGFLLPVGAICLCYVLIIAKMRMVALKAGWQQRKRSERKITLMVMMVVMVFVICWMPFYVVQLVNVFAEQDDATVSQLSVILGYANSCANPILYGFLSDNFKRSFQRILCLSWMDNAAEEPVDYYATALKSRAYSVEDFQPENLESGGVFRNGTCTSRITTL
Another data set concerns the target D(2) dopamine receptor (Homo sapiens, UniProt P14416). In words: Binding affinity to human dopamine D2 receptor.
Data set [8] concerns the target T1, Somatostatin receptor type 1. In words: Antagonist activity at human recombinant sst1 receptor assessed as inhibition of SRIF28-induced luciferase activity. The data set is classed as functional.
Data set [9] in a line: Ratio of drug level in brain to plasma in rat at 30 umol/kg after 24 hrs. It is filed as ADME. Particulars: brain and plasma.
Data set [10] deals with T2, 5-hydroxytryptamine receptor 1A (Homo sapiens, UniProt P08908).
T2 sequence (P08908 whole entry): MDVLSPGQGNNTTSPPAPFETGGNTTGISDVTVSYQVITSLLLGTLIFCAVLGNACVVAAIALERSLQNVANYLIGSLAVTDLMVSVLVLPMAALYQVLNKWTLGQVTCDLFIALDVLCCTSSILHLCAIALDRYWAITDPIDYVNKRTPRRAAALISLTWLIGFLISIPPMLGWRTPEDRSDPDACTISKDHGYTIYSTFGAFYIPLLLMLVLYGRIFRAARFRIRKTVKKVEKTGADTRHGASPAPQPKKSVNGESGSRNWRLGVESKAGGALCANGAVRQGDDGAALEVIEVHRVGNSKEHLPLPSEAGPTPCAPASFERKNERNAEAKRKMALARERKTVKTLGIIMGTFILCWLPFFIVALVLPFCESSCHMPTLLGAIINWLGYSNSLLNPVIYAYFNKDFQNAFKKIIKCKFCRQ
In words: Binding affinity to human 5HT1A receptor.

The target in data set [11] is T1, Somatostatin receptor type 1. As to the kind of experiment: Antagonist activity at human recombinant sst1 receptor in CCl39 cells assessed as SRIF14-induced inhibition of forskolin-stimulated adenylate cyclase activity. The data set is classed as functional, cell-based.
A short description of data set [12]: Ratio of drug level in brain to plasma in rat at 30 umol/kg after 10 mins. The data set is classed as ADME. Particulars: brain and plasma.
The next data set has as its target T3, D(4) dopamine receptor (Homo sapiens, UniProt P21917).
T3 sequence (P21917 whole entry): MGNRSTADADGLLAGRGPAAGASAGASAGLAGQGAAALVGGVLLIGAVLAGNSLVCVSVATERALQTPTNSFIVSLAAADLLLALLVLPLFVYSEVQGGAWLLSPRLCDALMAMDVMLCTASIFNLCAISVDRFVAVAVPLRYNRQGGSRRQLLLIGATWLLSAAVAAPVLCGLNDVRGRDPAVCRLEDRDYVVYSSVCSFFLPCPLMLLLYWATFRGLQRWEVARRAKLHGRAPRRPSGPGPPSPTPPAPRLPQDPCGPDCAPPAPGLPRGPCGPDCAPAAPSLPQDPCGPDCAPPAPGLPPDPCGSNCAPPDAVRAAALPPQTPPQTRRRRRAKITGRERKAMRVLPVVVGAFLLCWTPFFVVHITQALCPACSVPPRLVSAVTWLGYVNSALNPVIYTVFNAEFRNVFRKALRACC
As to the kind of experiment: Binding affinity to human dopamine D4 receptor.

The nature of data set [13]: Oral bioavailability in rat. It is filed as ADME, organism-based. Particulars: in vivo.

This note sets out measurements from ChEMBL document CHEMBL1140830, “Ergoline derivatives as highly potent and selective antagonists at the somatostatin sst 1 receptor” (Bioorg Med Chem Lett, 2008).

Somatostatin receptor type 2 (Homo sapiens, UniProt P30874), sequence (P30874 whole entry): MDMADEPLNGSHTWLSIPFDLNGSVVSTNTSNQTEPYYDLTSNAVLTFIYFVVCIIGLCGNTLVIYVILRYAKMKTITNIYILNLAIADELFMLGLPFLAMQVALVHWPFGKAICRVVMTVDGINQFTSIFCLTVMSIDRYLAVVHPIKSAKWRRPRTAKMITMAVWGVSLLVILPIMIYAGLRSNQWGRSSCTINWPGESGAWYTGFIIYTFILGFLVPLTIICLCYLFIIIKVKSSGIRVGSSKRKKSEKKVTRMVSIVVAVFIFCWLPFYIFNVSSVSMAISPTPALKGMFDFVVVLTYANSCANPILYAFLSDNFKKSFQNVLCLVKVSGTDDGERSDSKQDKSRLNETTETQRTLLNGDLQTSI
Somatostatin receptor type 2 (Rattus norvegicus, UniProt P30680), sequence (P30680 whole entry): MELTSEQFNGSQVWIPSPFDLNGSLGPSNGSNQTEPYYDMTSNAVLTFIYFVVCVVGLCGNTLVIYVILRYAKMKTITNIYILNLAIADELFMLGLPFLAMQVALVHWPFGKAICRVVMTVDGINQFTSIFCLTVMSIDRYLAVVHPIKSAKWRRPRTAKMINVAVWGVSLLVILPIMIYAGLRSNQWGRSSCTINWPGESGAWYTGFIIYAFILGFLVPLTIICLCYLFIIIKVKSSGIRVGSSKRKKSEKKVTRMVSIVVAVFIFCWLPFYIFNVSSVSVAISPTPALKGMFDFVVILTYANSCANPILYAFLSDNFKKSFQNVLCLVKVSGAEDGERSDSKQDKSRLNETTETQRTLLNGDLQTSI
Somatostatin receptor type 3, sequence (P32745 whole entry): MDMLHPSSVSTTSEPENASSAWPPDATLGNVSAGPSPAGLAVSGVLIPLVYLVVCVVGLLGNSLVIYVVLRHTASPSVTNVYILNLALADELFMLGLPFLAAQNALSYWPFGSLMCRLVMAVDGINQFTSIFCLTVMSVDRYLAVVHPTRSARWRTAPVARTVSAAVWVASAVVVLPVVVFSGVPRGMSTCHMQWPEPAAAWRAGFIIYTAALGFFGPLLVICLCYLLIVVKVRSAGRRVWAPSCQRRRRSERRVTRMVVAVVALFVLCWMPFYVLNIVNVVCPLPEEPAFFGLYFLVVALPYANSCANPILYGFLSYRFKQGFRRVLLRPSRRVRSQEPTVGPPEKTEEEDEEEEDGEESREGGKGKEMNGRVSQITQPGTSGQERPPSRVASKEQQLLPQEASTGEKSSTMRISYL
Somatostatin receptor type 1 (Rattus norvegicus, UniProt P28646), sequence (P28646 whole entry): as the sequence (P30872 whole entry) above, with S8P, S11T, P16S, S20G, G25V, G26C, A32S, A45S, T385A, T389S counted along it
D(2) dopamine receptor, sequence (P14416 whole entry): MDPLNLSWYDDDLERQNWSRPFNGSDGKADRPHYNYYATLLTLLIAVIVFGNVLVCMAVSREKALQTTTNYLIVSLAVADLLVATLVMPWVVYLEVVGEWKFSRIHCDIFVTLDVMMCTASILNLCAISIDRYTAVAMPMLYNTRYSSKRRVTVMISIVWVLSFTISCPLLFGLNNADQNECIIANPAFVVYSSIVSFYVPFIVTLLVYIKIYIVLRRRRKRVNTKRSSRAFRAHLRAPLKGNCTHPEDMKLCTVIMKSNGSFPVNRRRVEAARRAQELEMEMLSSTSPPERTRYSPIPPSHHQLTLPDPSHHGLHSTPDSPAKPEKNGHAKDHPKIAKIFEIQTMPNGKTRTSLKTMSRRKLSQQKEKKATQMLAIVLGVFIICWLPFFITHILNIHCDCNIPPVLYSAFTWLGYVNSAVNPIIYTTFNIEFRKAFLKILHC

One may read the Kd as the equilibrium constant for the complex coming apart. For the compound `CN1C[C@H](C(=O)N2CCN(c3ccc([N+](=O)[O-])cc3)CC2)C[C@@H]2c3cccc4[nH]cc(c34)C[C@H]21`, the results for the Kd in [1] and in data set [2] were 0.00389 µM and 3.16 µM, respectively.

Turning to `CN1C[C@@H](C(=O)N2CCN(c3cccc(=O)n3C)CC2)C[C@H]2c3cccc4[nH]c(Br)c(c34)C[C@@H]21`, the Kd is 0.417 µM in [1]; 69.2 µM in [3]; 20.4 µM in data set [2]; 8.13 µM in [4]; 5.37 µM in data set [5]; 9.33 µM in [6]. The Kd in data set [7] is 1.95 µM.

Turning to `CN1C[C@H](C(=O)N2CCN(c3ccccn3)CC2)C[C@@H]2c3cccc4[nH]c(O)c(c34)C[C@H]21`, the Kd in data set [1] was 0.24 µM; in [2], 8.51 µM.

For the compound `CN1C[C@H](C(=O)N2CCN(c3ccc(Cl)cc3)CC2)C[C@@H]2c3cccc4[nH]c(Br)c(c34)C[C@H]21`, the results for the Kd in data set [1] and in data set [2] were 0.0055 µM and 2 µM, respectively.

In general, pKb refers to the Kb on a negative log10 scale, so that one unit is a factor of ten. In general, Kp refers to the ratio of the level in a tissue or fluid to that in plasma or blood. One may read the bioavailability as the share of a dose that reaches the circulation, judged against a reference dose that is usually intravenous. The low end stands for little systemic uptake, the high end for much systemic uptake. For `CN1C[C@H](C(=O)N2CCN(c3ccc4nonc4c3)CC2)C[C@@H]2c3cccc4[nH]c(Br)c(c34)C[C@H]21`, the Kd is 0.126 µM at D(2) dopamine receptor; 0.000372 µM in data set [1]; 6.46 µM in data set [3]; 6.46 µM in data set [2]; 3.63 µM in [4]; 0.0282 µM in [10]. The Kd in [5] was 2.34 µM; in data set [6], 6.76 µM; in [7] it was 0.00123 µM; on D(4) dopamine receptor it was 0.0776 µM. For the same compound, the values for the pKb in data set [8] and in data set [11] were 9.42 and 7.62, respectively. In [9], the Kp at 24 h was 1.7. For the same compound, the Kp at 10 min in [12] stood at 0.7. In data set [13], this compound had a bioavailability of 48%.

Consider `CN1C[C@H](C(=O)N2CCN(c3ccc(F)c(F)c3)CC2)C[C@@H]2c3cccc4[nH]c(Br)c(c34)C[C@H]21`, for which the Kd in data set [1] was 0.00049 µM; in data set [2], 8.13 µM.

Turning to `CCn1c(N2CCN(C(=O)[C@@H]3C[C@@H]4c5cccc6[nH]c(Br)c(c56)C[C@H]4N(C)C3)CC2)cccc1=O`, the Kd in data set [1] is 0.000282 µM; in [2], 26.3 µM.

Regarding `CN1C[C@H](C(=O)N2CCN(c3ccccn3)CC2)C[C@@H]2c3cccc4[nH]c(Br)c(c34)C[C@H]21`, the Kd in data set [1] is 0.00447 µM; in [2] it was 16.6 µM.

`CCCCN1C[C@H](C(=O)N2CCN(c3ccccn3)CC2)C[C@@H]2c3cccc4[nH]c(Br)c(c34)C[C@H]21` had an equilibrium dissociation constant (Kd) in data set [1] of 1.15 µM.

In turn, `CN1C[C@H](C(=O)N2CCN(c3ccccn3)CC2)C[C@@H]2c3cccc4[nH]c(Cl)c(c34)C[C@H]21` had a Kd in data set [1] of 0.0129 µM.

Regarding `CN1C[C@H](C(=O)N2CCN(c3ccc4nsnc4n3)CC2)C[C@@H]2c3cccc4[nH]cc(c34)C[C@H]21`, the Kd in [1] is 0.00102 µM; in [2] it was 3.02 µM.

Regarding `CN1C[C@H](C(=O)N2CCN(c3ccccn3)CC2)C[C@@H]2c3cccc4[nH]cc(c34)C[C@H]21`, the Kd was 0.0141 µM in [1] and 17.8 µM in [2].

Consider `CN1C[C@H](C(=O)N2CCN(c3ccc([N+](=O)[O-])cc3)CC2)C[C@@H]2c3cccc4[nH]c(Br)c(c34)C[C@H]21`, for which the dissociation constant (Kd) in data set [1] is 0.00135 µM; in [2], 7.24 µM.

As for `CN1C[C@H](C(=O)N2CCN(c3cccc(=O)n3C)CC2)C[C@@H]2c3cccc4[nH]cc(c34)C[C@H]21`, the Kd in data set [1] is 0.000759 µM; in data set [2], 7.76 µM.

For `CN1C[C@H](C(=O)N2CCN(c3ccc(Cl)cc3)CC2)C[C@@H]2c3cccc4[nH]cc(c34)C[C@H]21`, the Kd is 0.0195 µM in [1] and 2.19 µM in [2].

Turning to `CC(C)CCN1C[C@H](C(=O)N2CCN(c3ccccn3)CC2)C[C@@H]2c3cccc4[nH]c(Br)c(c34)C[C@H]21`, in data set [1], the Kd is 1.74 µM.

Take `CN1C[C@H](C(=O)N2CCN(c3ccc4nonc4c3)CC2)C[C@@H]2c3cccc4[nH]c(Cl)c(c34)C[C@H]21`: the Kd in data set [1] is 0.000389 µM; in data set [2], 5.13 µM.

Regarding `CN1C[C@H](C(=O)N2CCN(c3ccc([N+](=O)[O-])cc3)CC2)C[C@@H]2c3cccc4[nH]c(Cl)c(c34)C[C@H]21`, the Kd in data set [1] is 0.00126 µM; in [2], 8.91 µM.

Turning to `CN1C[C@H](C(=O)N2CCN(c3ccc4nsnc4n3)CC2)C[C@@H]2c3cccc4[nH]c(Cl)c(c34)C[C@H]21`, the Kd is 0.00024 µM in data set [1] and 3.89 µM in data set [2].

For the compound `CN1C[C@H](C(=O)N2CCN(c3ccccn3)CC2)C[C@@H]2c3cccc4[nH]c(S(C)(=O)=O)c(c34)C[C@H]21`, the Kd in [1] was 0.309 µM; in [2] it was 7.76 µM.

Turning to `CN1C[C@H](C(=O)N2CCN(c3cccc(=O)n3C)CC2)C[C@@H]2c3cccc4[nH]c(Br)c(c34)C[C@H]21` [ERGOLINE], the values for the pKb in data set [8] and in data set [11] were 8.85 and 7.85, respectively.

Regarding `CSc1[nH]c2cccc3c2c1C[C@@H]1[C@@H]3C[C@@H](C(=O)N2CCN(c3ccccn3)CC2)CN1C`, the Kd is 0.0024 µM in data set [1] and 8.51 µM in [2].

Compound `COCCN1C[C@H](C(=O)N2CCN(c3ccccn3)CC2)C[C@@H]2c3cccc4[nH]c(Br)c(c34)C[C@H]21` showed a Kd in data set [1] of 1.48 µM.

In the case of `CN1C[C@H](C(=O)N2CCN(c3ccccn3)CC2)C[C@@H]2c3cccc4[nH]c([S+](C)[O-])c(c34)C[C@H]21` (stereo partly specified), the Kd in [1] is 2.63 µM; in [2], 17.8 µM.

Regarding `CCN1C[C@H](C(=O)N2CCN(c3ccc(F)c(F)c3)CC2)C[C@@H]2c3cccc4[nH]c(Br)c(c34)C[C@H]21`, the Kd in data set [1] was 0.000977 µM; in [2], 13.2 µM.

For `CN1C[C@H](C(=O)N2CCN(c3ccc(Cl)cc3)CC2)C[C@@H]2c3cccc4[nH]c(Cl)c(c34)C[C@H]21`, the Kd in data set [1] is 0.00417 µM; in data set [2] it was 5.89 µM.

As for `CN1C[C@H](C(=O)N2CCN(c3ccc4nsnc4n3)CC2)C[C@@H]2c3cccc4[nH]c(Br)c(c34)C[C@H]21`, the Kd was 0.000372 µM in [1] and 4.57 µM in [2].

With `CN1C[C@H](C(=O)N2CCN(c3ccccn3)CC2)C[C@@H]2c3cccc4[nH]c(I)c(c34)C[C@H]21`, the Kd in data set [1] was 0.0166 µM; in [2] it was 5.62 µM.

Take `O=C([C@H]1CN[C@@H]2Cc3c(Br)[nH]c4cccc(c34)[C@H]2C1)N1CCN(c2ccccn2)CC1`: the equilibrium dissociation constant (Kd) in data set [1] was 0.17 µM; in data set [2] it was 7.94 µM.

For the compound `CN1C[C@H](C(=O)N2CCN(c3ccc(F)c(F)c3)CC2)C[C@@H]2c3cccc4[nH]c(Cl)c(c34)C[C@H]21`, the Kd in [1] is 0.000603 µM; in [2] it was 12.9 µM.

As to `CN1C[C@@H](C(=O)N2CCN(c3ccc4nonc4c3)CC2)C[C@H]2c3cccc4[nH]c(Br)c(c34)C[C@@H]21`, the dissociation constant Kd in data set [1] is 0.182 µM; in data set [3], 23.4 µM; in [2], 12.6 µM; in data set [4] it was 5.62 µM; in data set [5], 7.24 µM; in data set [6] it was 3.89 µM. Further, in data set [7], the Kd is 0.501 µM.

Compound `O=C([C@@H]1C[C@@H]2c3cccc4[nH]c(Br)c(c34)C[C@H]2N(CCCO)C1)N1CCN(c2ccccn2)CC1` showed a Kd in data set [1] of 2.34 µM.

As for `CCn1c(N2CCN(C(=O)[C@@H]3C[C@@H]4c5cccc6[nH]c(Cl)c(c56)C[C@H]4N(C)C3)CC2)cccc1=O`, the results for the Kd in data set [1] and in data set [2] were 0.00038 µM and 12 µM, respectively.

For `CN1C[C@H](C(=O)N2CCN(c3cccc(=O)n3C)CC2)C[C@@H]2c3cccc4[nH]c(Cl)c(c34)C[C@H]21`, the Kd was 0.000389 µM in [1] and 49 µM in data set [2].
